For twelve compounds, IC50 and inhibition results are on record in US8134015B2, “Compound inhibiting in vivo phosphorous transport and medicine containing the same” (Kyowa Hakko Kirin Co., Ltd., priority 2003, dated 2012).

Where a name gives a salt, the structure may show the parent alone.

The target in the first assay is T1, rat NaPi-2b (Rattus norvegicus, UniProt Q9JJ09).
T1 construct: expressed in transfected cells; host or cells: Xenopus oocytes injected with cRNA
T1 sequence (Q9JJ09 1-695): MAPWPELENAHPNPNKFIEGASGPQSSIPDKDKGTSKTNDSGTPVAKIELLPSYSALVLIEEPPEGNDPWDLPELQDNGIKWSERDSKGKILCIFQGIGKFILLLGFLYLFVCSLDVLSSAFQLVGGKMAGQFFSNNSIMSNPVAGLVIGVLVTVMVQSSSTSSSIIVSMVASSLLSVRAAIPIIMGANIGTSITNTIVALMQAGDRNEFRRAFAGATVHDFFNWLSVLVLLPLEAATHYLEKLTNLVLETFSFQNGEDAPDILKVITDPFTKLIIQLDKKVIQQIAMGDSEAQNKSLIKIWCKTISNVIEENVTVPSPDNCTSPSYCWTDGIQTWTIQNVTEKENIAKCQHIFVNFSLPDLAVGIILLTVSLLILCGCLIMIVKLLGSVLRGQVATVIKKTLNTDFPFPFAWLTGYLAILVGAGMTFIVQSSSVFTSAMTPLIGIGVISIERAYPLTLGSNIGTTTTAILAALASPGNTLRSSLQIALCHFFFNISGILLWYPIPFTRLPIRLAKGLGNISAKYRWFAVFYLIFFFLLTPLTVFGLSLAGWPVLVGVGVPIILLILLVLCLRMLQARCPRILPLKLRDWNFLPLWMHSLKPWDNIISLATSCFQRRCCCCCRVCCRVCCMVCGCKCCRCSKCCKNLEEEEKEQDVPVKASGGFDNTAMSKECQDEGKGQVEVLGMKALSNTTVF
Nature of the assay: Sodium-dependent phosphate uptake of Xenopus oocytes which expressed NaPi-2b (32P). The conditions noted are these: Xenopus oocytes expressing rat NaPi-2b, 32P radioactive phosphorus; read-out: IC50 (phosphate uptake inhibitory activity). The assay is classed as cell-based. Summed up:
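Inhibition at 300 μM and 100 μM was read off one inhibition curve of 32P phosphate uptake. Uptake was measured in Xenopus oocytes cultured 2 days after injection of cRNA for cloned rat NaPi-2b.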
For the compound `CCN(CC)CCN(C)Cc1cccc(C(=O)Nc2sc3c(c2C(=O)N/N=C/c2cccc(F)c2)CCCC3)c1` [Compound 612, 3-{[(2-Diethylamino-ethyl)-methyl-amino]-methyl}-N-[3-(3-fluoro-benzylidene-hydrazinocarbonyl)-4,5,6,7-tetrahydro-benzo-[b]thiophen-2-yl]-benzamide], the half-inhibitory concentration (IC50) turned out to be 2340 nM.

As for `CCN(CC)CCNCc1ccc(C(=O)Nc2ccc(Br)cc2C(=O)N/N=C/c2ccc(Cl)c(C(F)(F)F)c2)cc1` [Compound 297, N-[4-Bromo-2-(4-chloro-3-trifluoromethyl-benzylidene-hydrazinocarbonyl)-phenyl]-4-[(2-diethylamino-ethylamino)-methyl]-benzamide], the IC50 was 960 nM. Still for that read-out and setting: the result for `COc1ccc(C(=O)Nc2ccc(Cl)cc2C(=O)N/N=C/c2ccc(F)cc2)cc1OC` [Compound 66, N-[4-Chloro-2-(4-fluoro-benzylidene-hydrazinocarbonyl)-phenyl]-3,4-dimethoxy-benzamide] reads 890 nM; that for `Cc1cccc(/C=N/NC(=O)c2cc(Cl)ccc2NC(=O)c2ccc(CN(C)CCO)cc2)c1` [Compound 414, N-[4-Chloro-2-(3-methyl-benzylidene-hydrazinocarbonyl)-phenyl]-4-{[(2-hydroxy-ethyl)-methyl-amino]-methyl}-benzamide], below 3000 nM. Same read-out and setting: the same measure for `CCN(CC)CCNCc1ccc(C(=O)Nc2ccc(Br)cc2C(=O)N/N=C/c2ccc(OC)cc2)cc1` [Compound 298, N-[4-Bromo-2-(4-methoxy-benzylidene-hydrazinocarbonyl)-phenyl]-4-[(2-diethylamino-ethylamino)-methyl]-benzamide]: 9220 nM; for `COc1ccc(C(=O)Nc2ccc(C)cc2C(=O)N/N=C/c2cccc(F)c2)cc1OC` [Compound 146, N-[2-(3-Fluoro-benzylidene-hydrazinocarbonyl)-4-methyl-phenyl]-3,4-dimethoxy-benzamide]: 1990 nM; for `COc1ccc(/C=N/NC(=O)c2cc(F)ccc2NC(=O)c2cccc(CN(CC(C)O)CC(C)O)c2)cc1` (stereo not drawn) [Compound 854, 3-{[Bis-(2-hydroxy-propyl)-amino]-methyl}-N-[4-fluoro-2-(4-methoxy-benzylidene-hydrazinocarbonyl)-phenyl]-benzamide; hydrochloride]: 1330 nM. Same read-out and setting: the same measure for `O=C(Nc1ccc(N2CCOCC2)cc1C(=O)N/N=C/c1ccc(Cl)c(C(F)(F)F)c1)c1cccc(CSCCO)c1` [Compound 1065, N-[2-(4-Chloro-3-trifluoromethyl-benzylidene-hydrazinocarbonyl)-4-morpholin-4-yl-phenyl]-3-(2-hydroxy-ethylsulfanylmethyl)-benzamide]: 1210 nM; for `COc1ccc(/C=N/NC(=O)c2cc(Br)ccc2NC(=O)c2ccc(OC)c(OC)c2)cc1OC` [Compound 127, N-[4-Bromo-2-(3,4-dimethoxy-benzylidene-hydrazinocarbonyl)-phenyl]-3,4-dimethoxy-benzamide]: 11600 nM; for `O=C(Nc1ccc(Br)cc1C(=O)N/N=C/c1ccc(F)cc1)c1ccc(CN2CCC(CCO)CC2)cc1` [Compound 743, N-[4-Bromo-2-(4-fluoro-benzylidene-hydrazinocarbonyl)-phenyl]-4-[4-(2-hydroxy-ethyl)-piperidin-1-ylmethyl]-benzamide]: 14400 nM.

The assay is the same for the next values; noted with them: phosphate uptake, oocytes expressing rat NaPi-2b; 300 μM, determined from inhibition curve.
`Cc1ccc(/C=N/NC(=O)c2cc(Br)ccc2NC(=O)c2ccc(CN3CCN(c4ccccn4)CC3)cc2)cc1C` [Compound 772, N-[4-Bromo-2-(3,4-dimethyl-benzylidene-hydrazinocarbonyl)-phenyl]-4-(4-pyridin-2-yl-piperazin-1-ylmethyl)-benzamide] showed an inhibition at 300 µM of 67.7%.

Compound `Cc1ccc(/C=N/NC(=O)c2c(C)csc2NC(=O)c2cccc(CSCCS(=O)(=O)O)c2)cc1C` [Compound 781, 2-{3-[3-(3,4-Dimethyl-benzylidene-hydrazinocarbonyl)-4-methyl-thiophen-2-ylcarbamoyl]-benzylsulfanyl}-ethanesulfonic acid] registered an inhibition at 300 µM of 51.2%.
